The results in this text go back to article PMC8213057, “Targeting ALK2: An Open Science Approach to Developing Therapeutics for the Treatment of Diffuse Intrinsic Pontine Glioma” (Journal of Medicinal Chemistry, 2020).

The target in one test is T1, SNRK (Homo sapiens, UniProt Q9NRH2).
T1 sequence (Q9NRH2 1-765): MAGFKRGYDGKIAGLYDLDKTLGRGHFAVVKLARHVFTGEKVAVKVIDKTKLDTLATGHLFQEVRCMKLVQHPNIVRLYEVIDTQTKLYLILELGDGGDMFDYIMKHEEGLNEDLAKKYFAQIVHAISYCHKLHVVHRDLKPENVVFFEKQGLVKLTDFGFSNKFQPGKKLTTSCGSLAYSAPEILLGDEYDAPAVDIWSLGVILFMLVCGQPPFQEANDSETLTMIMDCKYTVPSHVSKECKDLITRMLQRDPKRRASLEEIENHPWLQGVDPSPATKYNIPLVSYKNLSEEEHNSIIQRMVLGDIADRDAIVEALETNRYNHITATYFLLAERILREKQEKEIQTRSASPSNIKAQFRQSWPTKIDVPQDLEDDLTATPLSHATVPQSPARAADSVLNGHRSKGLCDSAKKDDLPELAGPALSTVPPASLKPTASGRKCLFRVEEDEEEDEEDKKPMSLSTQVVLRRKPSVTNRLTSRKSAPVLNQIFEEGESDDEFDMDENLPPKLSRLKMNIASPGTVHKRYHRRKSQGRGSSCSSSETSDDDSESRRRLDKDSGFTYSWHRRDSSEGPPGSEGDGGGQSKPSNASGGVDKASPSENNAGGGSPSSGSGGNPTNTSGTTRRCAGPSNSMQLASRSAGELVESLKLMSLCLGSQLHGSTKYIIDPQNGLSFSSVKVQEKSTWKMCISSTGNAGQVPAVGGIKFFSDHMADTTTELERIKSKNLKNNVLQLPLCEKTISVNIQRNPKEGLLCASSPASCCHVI
Kind of test: biochemical. The settings on record: read-out: % enzyme activity, 1 μM; Run 1, Run 2.

The target of a further test is T2, NEK9 (Homo sapiens, UniProt Q8TD19).
T2 sequence (Q8TD19 1-979): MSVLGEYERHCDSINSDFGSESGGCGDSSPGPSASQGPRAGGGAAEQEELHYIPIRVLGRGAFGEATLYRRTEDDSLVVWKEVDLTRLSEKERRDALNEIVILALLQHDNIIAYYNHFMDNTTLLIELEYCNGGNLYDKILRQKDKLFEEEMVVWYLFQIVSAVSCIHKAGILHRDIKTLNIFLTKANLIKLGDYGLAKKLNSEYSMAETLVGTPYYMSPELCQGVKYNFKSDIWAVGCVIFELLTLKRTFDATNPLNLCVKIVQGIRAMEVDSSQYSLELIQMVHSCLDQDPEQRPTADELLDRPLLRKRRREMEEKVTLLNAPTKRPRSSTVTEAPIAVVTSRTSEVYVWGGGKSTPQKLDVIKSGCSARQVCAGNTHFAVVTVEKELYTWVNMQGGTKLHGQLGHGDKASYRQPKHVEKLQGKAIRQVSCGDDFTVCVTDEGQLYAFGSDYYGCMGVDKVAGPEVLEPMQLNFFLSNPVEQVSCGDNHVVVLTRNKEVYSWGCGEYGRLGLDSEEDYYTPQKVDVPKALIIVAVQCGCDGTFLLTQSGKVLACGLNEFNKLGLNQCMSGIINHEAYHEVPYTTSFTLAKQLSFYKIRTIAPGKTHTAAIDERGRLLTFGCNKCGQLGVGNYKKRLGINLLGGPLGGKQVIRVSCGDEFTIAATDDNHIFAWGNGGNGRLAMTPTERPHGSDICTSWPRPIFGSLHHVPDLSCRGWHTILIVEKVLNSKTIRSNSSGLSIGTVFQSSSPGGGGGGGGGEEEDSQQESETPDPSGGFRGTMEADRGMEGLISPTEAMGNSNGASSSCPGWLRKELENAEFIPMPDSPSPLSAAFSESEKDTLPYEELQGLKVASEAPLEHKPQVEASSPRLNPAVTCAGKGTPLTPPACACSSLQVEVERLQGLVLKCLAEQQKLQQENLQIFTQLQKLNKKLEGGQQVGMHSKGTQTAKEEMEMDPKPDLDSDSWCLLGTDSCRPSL
Kind of test: biochemical. The settings on record: read-out: % enzyme activity, 1 μM; Run 1, Run 2.

A further test has as its target T3, SGK3/SGKL (Homo sapiens, UniProt Q96BR1).
T3 sequence (Q96BR1 1-496): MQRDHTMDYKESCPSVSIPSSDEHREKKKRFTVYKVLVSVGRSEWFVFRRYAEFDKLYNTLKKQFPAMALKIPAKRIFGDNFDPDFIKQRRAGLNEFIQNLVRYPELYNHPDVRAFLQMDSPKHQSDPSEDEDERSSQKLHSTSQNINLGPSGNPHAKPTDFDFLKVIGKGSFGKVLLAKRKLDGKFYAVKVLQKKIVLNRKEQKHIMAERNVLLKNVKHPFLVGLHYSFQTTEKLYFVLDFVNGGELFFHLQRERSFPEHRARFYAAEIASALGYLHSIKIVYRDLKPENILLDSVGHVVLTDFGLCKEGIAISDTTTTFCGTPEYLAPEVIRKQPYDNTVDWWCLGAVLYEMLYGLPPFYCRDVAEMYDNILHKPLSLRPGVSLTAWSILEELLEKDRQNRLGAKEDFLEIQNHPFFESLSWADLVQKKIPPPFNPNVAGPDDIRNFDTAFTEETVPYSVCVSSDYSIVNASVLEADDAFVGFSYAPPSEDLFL
The settings on record: 1 μM; Run 1, Run 2.

In the next test the target is CK1a1 (Homo sapiens, UniProt P48729). Kind of test: biochemical. Particulars: read-out: % enzyme activity, 1 μM; Run 1, Run 2.
In a further test the target is PDGFRa (Homo sapiens, UniProt P16234). The settings on record: 1 μM; Run 1, Run 2.

Where “and” joins values, the source holds several entries; their conditions need not be identical. Equal entries are not always repeated.

Chain of PDGFRa (P16234 24-1089): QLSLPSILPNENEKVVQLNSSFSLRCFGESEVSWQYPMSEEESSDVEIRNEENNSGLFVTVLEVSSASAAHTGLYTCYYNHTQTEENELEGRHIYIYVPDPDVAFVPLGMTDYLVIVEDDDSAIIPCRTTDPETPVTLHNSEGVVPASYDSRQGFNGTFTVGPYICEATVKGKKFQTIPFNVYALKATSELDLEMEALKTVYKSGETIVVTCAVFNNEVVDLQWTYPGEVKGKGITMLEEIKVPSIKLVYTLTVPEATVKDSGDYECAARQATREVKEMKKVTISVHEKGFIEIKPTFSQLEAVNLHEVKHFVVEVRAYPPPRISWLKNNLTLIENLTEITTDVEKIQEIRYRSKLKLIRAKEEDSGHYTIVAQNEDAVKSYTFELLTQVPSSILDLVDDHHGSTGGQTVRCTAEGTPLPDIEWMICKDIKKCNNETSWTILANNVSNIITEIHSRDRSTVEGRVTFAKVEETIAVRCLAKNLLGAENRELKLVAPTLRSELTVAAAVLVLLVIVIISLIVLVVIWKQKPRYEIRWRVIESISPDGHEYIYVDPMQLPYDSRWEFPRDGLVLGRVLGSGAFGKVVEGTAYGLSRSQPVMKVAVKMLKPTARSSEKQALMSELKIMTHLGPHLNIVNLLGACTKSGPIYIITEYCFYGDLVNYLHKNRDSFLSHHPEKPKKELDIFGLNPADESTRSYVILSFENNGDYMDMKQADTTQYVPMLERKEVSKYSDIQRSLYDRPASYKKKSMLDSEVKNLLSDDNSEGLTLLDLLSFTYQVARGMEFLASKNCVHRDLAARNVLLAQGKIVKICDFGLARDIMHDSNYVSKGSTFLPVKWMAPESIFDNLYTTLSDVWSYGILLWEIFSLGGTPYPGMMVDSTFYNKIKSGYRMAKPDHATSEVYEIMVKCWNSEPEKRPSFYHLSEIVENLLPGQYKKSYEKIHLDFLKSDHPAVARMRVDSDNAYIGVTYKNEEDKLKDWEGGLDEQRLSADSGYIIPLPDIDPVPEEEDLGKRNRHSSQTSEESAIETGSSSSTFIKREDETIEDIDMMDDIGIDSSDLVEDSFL
Chain of CK1a1 (P48729 whole entry): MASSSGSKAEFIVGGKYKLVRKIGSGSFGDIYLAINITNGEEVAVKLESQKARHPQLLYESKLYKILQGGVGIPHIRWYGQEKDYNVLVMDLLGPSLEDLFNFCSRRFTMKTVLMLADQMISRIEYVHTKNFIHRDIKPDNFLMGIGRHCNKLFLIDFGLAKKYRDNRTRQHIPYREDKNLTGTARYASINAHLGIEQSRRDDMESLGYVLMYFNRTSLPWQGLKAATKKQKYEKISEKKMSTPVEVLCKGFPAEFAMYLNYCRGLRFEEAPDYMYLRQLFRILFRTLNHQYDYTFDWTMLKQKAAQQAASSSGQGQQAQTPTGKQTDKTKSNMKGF

For the compound `COc1cc(-c2cncc(-c3ccc(N4CCN(C)CC4)cc3)c2C)cc(F)c1C(N)=O` [Compound 26a, 2-Fluoro-6-methoxy-4-(4-methyl-5-(4-(4-methylpiperazin-1-yl)phenyl)pyridin-3-yl)benzamide], the remaining activity at 1 µM was 105% at SNRK, 91.2% on NEK9 and 96.1% on CK1a1. For the same compound, the figures for the “% enzyme activity” value at SGK3/SGKL and on PDGFRa were 99.35% and 81.22%, respectively. Further, the % enzyme activity at 1 μM in the test with TAOK1 is 60.3% and 60.2%.

As to `COc1cc(-c2cncc(-c3ccc(N4C[C@@H](C)N(C)[C@@H](C)C4)cc3)c2C)cc(F)c1C(N)=O` [Compound 26c, 2-Fluoro-6-methoxy-4-(4-methyl-5-(4-((3R,5S)-3,4,5-trimethylpiperazin-1-yl)phenyl)pyridin-3-yl)benzamide], the remaining activity at 1 µM on SNRK was 100%; on NEK9, 91.6%; on CK1a1, 100%. Besides, the results for the “% enzyme activity” value on SGK3/SGKL and at PDGFRa were 93.33% and 81.08%, respectively. Also, the % enzyme activity at 1 μM in the test on TAOK1 is 62.2% and 60.6%.
